Calls of active or inactive are those of the source. The calls are words filed in the database; no cut-off is given here.
Assays:
Format in all cases: functional
[1] = tested on: HT-29; assay: Cytotoxicity against human HT-29 cells at 10 uM after 48 hrs by SRB assay; details: HT-29, 48 h, read-out: GI
[2] = Cytotoxicity against human RXF393 cells at 10 uM after 48 hrs by SRB assay; details: RXF 393, 48 h, read-out: GI
[3] = Cytotoxicity against human OVCAR5 cells at 10 uM after 48 hrs by SRB assay; details: OVCAR-5, 48 h, read-out: GI
[4] = Cytotoxicity against human HCC2998 cells at 10 uM after 48 hrs by SRB assay; details: HCC 2998, 48 h, read-out: GI
[5] = Cytotoxicity against human UACC257 cells at 10 uM after 48 hrs by SRB assay; details: UACC-257, 48 h, read-out: GI
[6] = tested on: A549; assay: Cytotoxicity against human A549 cells at 10 uM after 48 hrs by SRB assay; details: A549, 48 h, read-out: GI
[7] = Cytotoxicity against human OVCAR4 cells at 10 uM after 48 hrs by SRB assay; details: OVCAR-4, 48 h, read-out: GI
[8] = Cytotoxicity against human DU145 cells at 10 uM after 48 hrs by SRB assay; details: DU-145, 48 h, read-out: GI
[9] = tested on: NCI-H522; assay: Cytotoxicity against human NCI-H522 cells at 10 uM after 48 hrs by SRB assay; details: NCI-H522, 48 h, read-out: GI
[10] = tested on: K562; assay: Cytotoxicity against human K562 cells at 10 uM after 48 hrs by SRB assay; details: K562, 48 h, read-out: GI
[11] = Cytotoxicity against human SW620 cells at 10 uM after 48 hrs by SRB assay; details: SW-620, 48 h, read-out: GI
[12] = tested on: NCI-H226; assay: Cytotoxicity against human NCI-H226 cells at 10 uM after 48 hrs by SRB assay; details: NCI-H226, 48 h, read-out: GI
[13] = tested on: CCRF-CEM; assay: Cytotoxicity against human CCRF-CEM cells at 10 uM after 48 hrs by SRB assay; details: read-out: GI
[14] = tested on: KM12; assay: Cytotoxicity against human KM12 cells at 10 uM after 48 hrs by SRB assay; details: KM12, 48 h, read-out: GI
[15] = Cytotoxicity against human RPMI8226 cells at 10 uM after 48 hrs by SRB assay; details: RPMI-8226, 48 h, read-out: GI
[16] = tested on: SK-OV-3; assay: Cytotoxicity against human SKOV3 cells at 10 uM after 48 hrs by SRB assay
[17] = tested on: BT-549; assay: Cytotoxicity against human BT549 cells at 10 uM after 48 hrs by SRB assay
[18] = tested on: SN12C; assay: Cytotoxicity against human SN12C cells at 10 uM after 48 hrs by SRB assay; details: read-out: GI
[19] = Cytotoxicity against human HCT116 cells at 10 uM after 48 hrs by SRB assay; details: HCT-116, 48 h, read-out: GI
[20] = Cytotoxicity against human LOXIMVI cells at 10 uM after 48 hrs by SRB assay; details: LOX IMVI, read-out: GI
[21] = Cytotoxicity against human UO31 cells at 10 uM after 48 hrs by SRB assay; details: UO-31, 48 h, read-out: GI
[22] = Cytotoxicity against human OVCAR3 cells at 10 uM after 48 hrs by SRB assay; details: OVCAR-3, 48 h, read-out: GI
[23] = Cytotoxicity against human HOP92 cells at 10 uM after 48 hrs by SRB assay; details: HOP-92, 48 h, read-out: GI
[24] = tested on: NCI-H460; assay: Cytotoxicity against human NCI-H460 cells at 10 uM after 48 hrs by SRB assay; details: NCI-H460, 48 h, read-out: GI
[25] = tested on: TK-10; assay: Cytotoxicity against human TK10 cells at 10 uM after 48 hrs by SRB assay
[26] = tested on: 786-0; assay: Cytotoxicity against human 786-0 cells at 10 uM after 48 hrs by SRB assay; details: 786-0, 48 h, read-out: GI
[27] = tested on: SNB-19; assay: Cytotoxicity against human SNB19 cells at 10 uM after 48 hrs by SRB assay
[28] = tested on: MCF7; assay: Cytotoxicity against human MCF7 cells at 10 uM after 48 hrs by SRB assay; details: MCF7, 48 h, read-out: GI
[29] = tested on: ACHN; assay: Cytotoxicity against human ACHN cells at 10 uM after 48 hrs by SRB assay; details: read-out: GI
[30] = Cytotoxicity against human MOLT4 cells at 10 uM after 48 hrs by SRB assay; details: MOLT-4, 48 h, read-out: GI
[31] = tested on: M14; assay: Cytotoxicity against human M14 cells at 10 uM after 48 hrs by SRB assay
[32] = tested on: SK-MEL-5; assay: Cytotoxicity against human SK-MEL-5 cells at 10 uM after 48 hrs by SRB assay; details: SK-MEL-5, 48 h, read-out: GI
[33] = tested on: NCI/ADR-RES; assay: Cytotoxicity against human NCI-ADR-RES cells at 10 uM after 48 hrs by SRB assay
[34] = tested on: MDA-MB-435; assay: Cytotoxicity against human MDA-MB-435 cells at 10 uM after 48 hrs by SRB assay; details: MDA-MB-435, 48 h, read-out: GI
[35] = tested on: A498; assay: Cytotoxicity against human A498 cells at 10 uM after 48 hrs by SRB assay; details: A498, 48 h, read-out: GI
[36] = Cytotoxicity against human IGROV1 cells at 10 uM after 48 hrs by SRB assay; details: IGROV-1, 48 h, read-out: GI
[37] = Cytotoxicity against human HCT15 cells at 10 uM after 48 hrs by SRB assay; details: HCT-15, 48 h, read-out: GI
[38] = Cytotoxicity against human Caki1 cells at 10 uM after 48 hrs by SRB assay; details: CAKI-1, 48 h, read-out: GI
[39] = tested on: MDA-MB-231; assay: Cytotoxicity against human MDA-MB-231 cells at 10 uM after 48 hrs by SRB assay; details: MDA-MB-231, 48 h, read-out: GI
[40] = tested on: COLO 205; assay: Cytotoxicity against human COLO205 cells at 10 uM after 48 hrs by SRB assay
[41] = Cytotoxicity against human SF268 cells at 10 uM after 48 hrs by SRB assay; details: SF-268, 48 h, read-out: GI
[42] = Cytotoxicity against human SF295 cells at 10 uM after 48 hrs by SRB assay; details: SF-295, 48 h, read-out: GI
[43] = Cytotoxicity against human OVCAR8 cells at 10 uM after 48 hrs by SRB assay; details: OVCAR-8, 48 h, read-out: GI
[44] = Cytotoxicity against human SF539 cells at 10 uM after 48 hrs by SRB assay; details: SF-539, 48 h, read-out: GI
[45] = Cytotoxicity against human SNB75 cells at 10 uM after 48 hrs by SRB assay; details: SNB-75, 48 h, read-out: GI
[46] = Cytotoxicity against human UACC62 cells at 10 uM after 48 hrs by SRB assay; details: UACC-62, 48 h, read-out: GI
[47] = tested on: Malme-3M; assay: Cytotoxicity against human MALME-3M cells at 10 uM after 48 hrs by SRB assay; details: read-out: GI
[48] = Cytotoxicity against human HOP62 cells at 10 uM after 48 hrs by SRB assay; details: HOP-62, 48 h, read-out: GI
[49] = tested on: T47D; assay: Cytotoxicity against human T47D cells at 10 uM after 48 hrs by SRB assay
[50] = tested on: MDA-MB-468; assay: Cytotoxicity against human MDA-MB-468 cells at 10 uM after 48 hrs by SRB assay; details: MDA-MB-468, 48 h, read-out: GI
[51] = tested on: SK-MEL-28; assay: Cytotoxicity against human SK-MEL-28 cells at 10 uM after 48 hrs by SRB assay
[52] = Cytotoxicity against human Hs 578T cells at 10 uM after 48 hrs by SRB assay; details: read-out: GI
[53] = Cytotoxicity against human PC3 cells at 10 uM after 48 hrs by SRB assay; details: PC-3, 48 h, read-out: GI
[54] = tested on: SK-MEL-2; assay: Cytotoxicity against human SK-MEL-2 cells at 10 uM after 48 hrs by SRB assay
[55] = Cytotoxicity against human HL-60(TB) cells at 10 uM after 48 hrs by SRB assay; details: HL-60, 48 h, read-out: GI
[56] = tested on: SR; assay: Cytotoxicity against human SR cells at 10 uM after 48 hrs by SRB assay; details: read-out: GI

## Cc1nc2cc(Nc3nc(Nc4ccc(O)cc4)nc(Nc4ccc(F)cc4)n3)ccc2n1Cc1ccccc1
[1]
  inhibition of growth at 10 µM: 4.8%
[2]
  inhibition of growth at 10 µM: 18.8%
[3]
  inhibition of growth at 10 µM: 3.66%
[4]
  inhibition of growth at 10 µM: 4.67%
[5]
  inhibition of growth at 10 µM: 3.73%
[6]
  inhibition of growth at 10 µM: 22.2%
[7]
  inhibition of growth at 10 µM: 12.8%
[8]
  inhibition of growth at 10 µM: 41.6%
[9]
  inhibition of growth at 10 µM: 15.1%
[10]
  inhibition of growth at 10 µM: 21.3%
[11]
  inhibition of growth at 10 µM: 18.8%
[12]
  inhibition of growth at 10 µM: 12.8%
[13]
  inhibition of growth at 10 µM: 8.15%
[14]
  inhibition of growth at 10 µM: 17.6%
[15]
  inhibition of growth at 10 µM: 26.7%
[16]
  growth inhibition (GI): inactive
[17]
  growth inhibition (GI): inactive
[18]
  inhibition of growth at 10 µM: 2.54%
[19]
  inhibition of growth at 10 µM: 10.6%
[20]
  inhibition of growth at 10 µM: 3.79%
[21]
  inhibition of growth at 10 µM: 6.02%
[22]
  inhibition of growth at 10 µM: 8.38%
[23]
  inhibition of growth at 10 µM: 17.8%
[24]
  inhibition of growth at 10 µM: 18.2%
[25]
  growth inhibition (GI): inactive
[26]
  inhibition of growth at 10 µM: 6.04%
[27]
  growth inhibition (GI): inactive
[28]
  inhibition of growth at 10 µM: 16%
[29]
  inhibition of growth at 10 µM: 8.7%
[30]
  inhibition of growth at 10 µM: 19.8%
[31]
  growth inhibition (GI): inactive
[32]
  inhibition of growth at 10 µM: 5.6%
[33]
  growth inhibition (GI): inactive
[34]
  inhibition of growth at 10 µM: 4.26%
[35]
  inhibition of growth at 10 µM: 13.4%
[36]
  inhibition of growth at 10 µM: 2.23%
[37]
  inhibition of growth at 10 µM: 17.3%
[38]
  inhibition of growth at 10 µM: 4.53%
[39]
  inhibition of growth at 10 µM: 11.3%
[40]
  growth inhibition (GI): inactive
[41]
  inhibition of growth at 10 µM: 11.2%
[42]
  inhibition of growth at 10 µM: 5.35%
[43]
  inhibition of growth at 10 µM: 22.2%
[44]
  inhibition of growth at 10 µM: 6.34%
[45]
  inhibition of growth at 10 µM: 15.1%
[46]
  inhibition of growth at 10 µM: 3.94%
[47]
  inhibition of growth at 10 µM: 0.89%
[48]
  inhibition of growth at 10 µM: 3.47%
[49]
  growth inhibition (GI): inactive
[50]
  inhibition of growth at 10 µM: 13.4%
[51]
  growth inhibition (GI): inactive
[52]
  inhibition of growth at 10 µM: 1.42%
[53]
  inhibition of growth at 10 µM: 10.7%
[54]
  growth inhibition (GI): inactive
[55]
  inhibition of growth at 10 µM: 6.96%
[56]
  inhibition of growth at 10 µM: 20.8%

Reference: ChEMBL document CHEMBL3745645, “Synthesis, in vitro antitumor activity, dihydrofolate reductase inhibition, DNA intercalation and structure-activity relationship studies of 1,3,5-triazine analogues” (Bioorg Med Chem Lett, 2016)
